ChEMBL document CHEMBL6074683, “Design, synthesis and investigation of biological activity and mechanism of fluoroaryl-substituted derivatives at the FL118 position 7” (Eur J Med Chem, 2025)
Activity calls are given as the source filed them. The calls are words filed in the database; no cut-off is given here.

What was measured:
HepG2 = test: Cytotoxicity against human HepG2 cells incubated for 72 hrs by MTT assay; assay type: functional, cell-based; conditions: HepG2, 72 h
HCT-116 [1] = test: Cytotoxicity against human HCT-116 cells incubated for 72 hrs by MTT assay; assay type: functional, cell-based; conditions: HCT-116, 72 h
PDX27454 [2] = test: Antitumor activity against human PDX27454 cells xenografted in SCID mouse at 2 to 15 mg/kg, ip administered weekly for 4 weeks; assay type: functional, organism-based; conditions: dose 2-15 mg/kg
[3] = Toxicity in SCID mouse assessed as change in body weight at 2 to 15 mg/kg, ip administered weekly for 4 weeks; assay type: organism-based; conditions: in vivo, 672 h, dose 2-15 mg/kg
A549 = test: Cytotoxicity against human A549 cells incubated for 72 hrs by MTT assay; assay type: functional, cell-based; conditions: A549, 72 h
HeLa = test: Cytotoxicity against human HeLa cells incubated for 72 hrs by MTT assay; assay type: functional, cell-based
HCT-116 [4] = test: Induction of apoptosis in human HCT-116 cells assessed as viable cells at 2.5 nM incubated for 48 hrs by PI/Annexin V-FITC staining based flow cytometry assay (reference value: 93%); assay type: functional; conditions: read-out: Activity
HCT-116 [5] = test: Upregulation of Bax protein level in human HCT-116 cells incubated for 72 hrs by Western blotting assay; assay type: functional, cell-based; conditions: dose 50-100 nM
HCT-116 [6] = test: Induction of apoptosis in human HCT-116 cells assessed as necrotic cells at 50 nM incubated for 48 hrs by PI/Annexin V-FITC staining based flow cytometry assay (reference value: 2.58%); assay type: functional
HCT-116 [7] = test: Induction of apoptosis in human HCT-116 cells assessed as necrotic cells at 10 nM incubated for 48 hrs by PI/Annexin V-FITC staining based flow cytometry assay (reference value: 2.58%); assay type: functional
HCT-116 [8] = test: Downregulation of DDX5 protein expression in human HCT-116 cells at 100 nM incubated upto 72 hrs by Western blotting assay; assay type: functional, cell-based
HCT-116 [9] = test: Downregulation of XIAP protein level in human HCT-116 cells at 50 to 100 nM incubated for 72 hrs by Western blotting assay; assay type: functional, cell-based; conditions: dose 50-100 nM
HCT-116 [10] = test: Downregulation of Bcl-2 protein level in human HCT-116 cells at 50 to 100 nM incubated for 72 hrs by Western blotting assay; assay type: functional, cell-based; conditions: dose 50-100 nM
[11] = molecular target: T1, DNA topoisomerase 1 (Homo sapiens) (UniProt P11387); test: Inhibition of topoisomerase 1 (unknown origin) using pBR322 DNA as substrate by ethidium bromide staining based agarose gel electrophoresis method
T1 sequence (whole entry): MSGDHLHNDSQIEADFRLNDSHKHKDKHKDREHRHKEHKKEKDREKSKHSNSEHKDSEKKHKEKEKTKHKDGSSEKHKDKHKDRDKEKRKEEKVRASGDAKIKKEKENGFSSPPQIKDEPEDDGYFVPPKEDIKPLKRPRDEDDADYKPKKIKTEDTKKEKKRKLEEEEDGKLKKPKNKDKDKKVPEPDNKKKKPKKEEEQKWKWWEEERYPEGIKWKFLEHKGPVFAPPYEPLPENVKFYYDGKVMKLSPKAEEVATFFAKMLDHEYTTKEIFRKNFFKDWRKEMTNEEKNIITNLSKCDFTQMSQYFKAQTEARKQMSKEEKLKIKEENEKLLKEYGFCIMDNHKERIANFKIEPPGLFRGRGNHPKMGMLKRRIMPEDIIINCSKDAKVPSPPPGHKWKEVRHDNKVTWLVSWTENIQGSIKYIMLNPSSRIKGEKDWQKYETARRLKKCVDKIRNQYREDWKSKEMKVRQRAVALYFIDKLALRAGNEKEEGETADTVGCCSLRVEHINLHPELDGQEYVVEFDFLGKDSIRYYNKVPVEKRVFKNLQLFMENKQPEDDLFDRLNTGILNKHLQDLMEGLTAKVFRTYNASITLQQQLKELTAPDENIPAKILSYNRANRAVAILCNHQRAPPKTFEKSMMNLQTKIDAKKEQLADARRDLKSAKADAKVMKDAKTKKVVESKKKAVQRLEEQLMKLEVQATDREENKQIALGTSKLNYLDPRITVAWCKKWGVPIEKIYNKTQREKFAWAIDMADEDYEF

HCT-116 [12] = test: Induction of ROS generation in human HCT-116 cells incubated for 72 hrs by DCFH-DA staining based assay; assay type: functional, cell-based; conditions: dose 5-100 nM
HCT-116 [13] = test: Induction of apoptosis in human HCT-116 cells assessed as necrotic cells at 2.5 nM incubated for 48 hrs by PI/Annexin V-FITC staining based flow cytometry assay (reference value: 2.58%); assay type: functional
HCT-116 [14] = test: Upregulation of gammaH2AX protein level in human HCT-116 cells incubated for 72 hrs by Western blotting assay; assay type: functional, cell-based; conditions: dose 50-100 nM
[15] = molecular target: T1, DNA topoisomerase 1 (Homo sapiens); test: Inhibition of topoisomerase 1 (unknown origin) assessed as reduction in nicking of supercoiled DNA at 0.05 to 0.5 uM using pBR322 DNA as substrate by ethidium bromide staining based agarose gel electrophoresis method; conditions: dose 0.05-0.5 µM
PDX27454 [16] = test: Antitumor activity against human PDX27454 cells xenografted in ip dosed SCID mouse administered weekly for 4 weeks and measured after 35 days; assay type: functional, organism-based; conditions: dose 2-15 mg/kg
HCT-116 [17] = test: Induction of apoptosis in human HCT-116 cells assessed as early apoptotic cells at 10 nM incubated for 48 hrs by PI/Annexin V-FITC staining based flow cytometry assay (reference value: 0.27%); assay type: functional
HCT-116 [18] = test: Induction of apoptosis in human HCT-116 cells assessed as viable cells at 10 nM incubated for 48 hrs by PI/Annexin V-FITC staining based flow cytometry assay (reference value: 93%); assay type: functional; conditions: read-out: Activity
HCT-116 [19] = test: Downregulation of survivin protein level in human HCT-116 cells at 50 to 100 nM incubated for 72 hrs by Western blotting assay; assay type: functional, cell-based; conditions: dose 50-100 nM
HCT-116 [20] = test: Induction of apoptosis in human HCT-116 cells assessed as viable cells at 50 nM incubated for 48 hrs by PI/Annexin V-FITC staining based flow cytometry assay (reference value: 93%); assay type: functional; conditions: read-out: Activity
HCT-116 [21] = test: Induction of apoptosis in human HCT-116 cells assessed as late apoptotic cells at 2.5 nM incubated for 48 hrs by PI/Annexin V-FITC staining based flow cytometry assay (reference value: 4.02%); assay type: functional
HCT-116 [22] = test: Inhibition of colony formation in human HCT-116 cells incubated for 12 hrs by crystal violet staining based assay; assay type: functional, cell-based; conditions: dose 5-25 nM
[23] = molecular target: T1, DNA topoisomerase 1 (Homo sapiens); test: Inhibition of topoisomerase 1 (unknown origin) assessed as reduction in nicking of supercoiled DNA at 5 to 50 uM using pBR322 DNA as substrate by ethidium bromide staining based agarose gel electrophoresis method; conditions: dose 5-50 µM
HCT-116 [24] = test: Induction of apoptosis in human HCT-116 cells assessed as late apoptotic cells at 10 nM incubated for 48 hrs by PI/Annexin V-FITC staining based flow cytometry assay (reference value: 4.02%); assay type: functional
HCT-116 [25] = test: Induction of apoptosis in human HCT-116 cells assessed as early apoptotic cells at 2.5 nM incubated for 48 hrs by PI/Annexin V-FITC staining based flow cytometry assay (reference value: 0.27%); assay type: functional
[26] = molecular target: T1, DNA topoisomerase 1 (Homo sapiens); test: Inhibition of topoisomerase 1 (unknown origin) using pBR322 DNA as substrate in presence of DDX5 by ethidium bromide staining based agarose gel electrophoresis method
HCT-116 [27] = test: Induction of apoptosis in human HCT-116 cells assessed as early apoptotic cells at 50 nM incubated for 48 hrs by PI/Annexin V-FITC staining based flow cytometry assay (reference value: 0.27%); assay type: functional
HCT-116 [28] = test: Induction of ROS generation in human HCT-116 cells incubated for 12 hrs by DCFH-DA staining based assay; assay type: functional, cell-based
HCT-116 [29] = test: Induction of apoptosis in human HCT-116 cells assessed as late apoptotic cells at 50 nM incubated for 48 hrs by PI/Annexin V-FITC staining based flow cytometry assay (reference value: 4.02%); assay type: functional
PDX27454 [30] = test: Antitumor activity against human PDX27454 cells xenografted in SCID mouse at 15 mg/kg, ip administered weekly for 4 weeks; assay type: functional, organism-based

With `CC[C@@]1(O)C(=O)OCc2c1cc1n(c2=O)Cc2c-1nc1cc3c(cc1c2-c1cc(F)cc(F)c1)OCO3` the IC50 (HepG2) was 41.4 nM, the IC50 (HCT-116 [1]) was 48 nM and the Activity (PDX27454 [2]) was “Active”. For the same compound, the Activity [3] was “Non-toxic”, the IC50 (A549) was 49.5 nM and the IC50 (HeLa) was 35.6 nM.
`CC[C@@]1(O)C(=O)OCc2c1cc1n(c2=O)Cc2c-1nc1cc3c(cc1c2-c1cccc(OC(F)(F)F)c1)OCO3` gave an IC50 (HepG2) of 16.8 nM, an IC50 (HCT-116 [1]) of 14.6 nM and an IC50 (A549) of 26.4 nM. The IC50 (HeLa) was 12.8 nM.
Compound `CC[C@@]1(O)C(=O)OCc2c1cc1n(c2=O)Cc2c-1nc1cc3c(cc1c2-c1cccc(C(F)(F)F)c1)OCO3` has an IC50 (HepG2) of 35 nM, an IC50 (HCT-116 [1]) of 73.6 nM and an IC50 (A549) of 82.9 nM. The IC50 (HeLa) was 20.2 nM.
`CC[C@@]1(O)C(=O)OCc2c1cc1n(c2=O)Cc2c-1nc1cc3c(cc1c2-c1ccc(F)c(C)c1)OCO3` gave an IC50 (HepG2) of 36.7 nM, an IC50 (HCT-116 [1]) of 25.5 nM and an IC50 (A549) of 29.4 nM. For the same compound, the IC50 (HeLa) was 36.6 nM.
For `CC[C@@]1(O)C(=O)OCc2c1cc1n(c2=O)Cc2c-1nc1cc3c(cc1c2-c1ccc(F)c(OC)c1)OCO3`, the viability at 0.0025 µM (HCT-116 [4]) was 84.4%, the Activity (HCT-116 [5]) was “Active” and the Activity (HCT-116 [6]) was 5.94%. The Activity (HCT-116 [7]) was 4.17%, the Activity (HCT-116 [8]) was “inactive” and the Activity (HCT-116 [9]) was “Active”. For the same compound, the Activity (PDX27454 [2]) was “Active”, the Activity (HCT-116 [10]) was “Active” and the inhibition [11] was “Active”. The Activity (HCT-116 [12]) was “Dose-dependent-effect”, the Activity [3] was “Non-toxic” and the Activity (HCT-116 [13]) was 4.13%. For the same compound, the Activity (HCT-116 [14]) was “Active”, the Activity [15] was “inactive” and the Activity (PDX27454 [16]) was “Dose-dependent-effect”. For the same compound, the Activity (HCT-116 [17]) was 0.5%, the viability at 0.01 µM (HCT-116 [18]) was 79% and the Activity (HCT-116 [19]) was “Active”. The viability at 0.05 µM (HCT-116 [20]) was 67.5%, the Activity (HCT-116 [21]) was 10.9% and the inhibition (HCT-116 [22]) was “Dose-dependent-effect”. For the same compound, the Activity [23] was “Active”, the Activity (HCT-116 [24]) was 16.3% and the Activity (HCT-116 [25]) was 0.64%. The Activity [26] was “Active”, the Activity (HCT-116 [27]) was 0.78% and the Activity (HCT-116 [28]) was “inactive”. For the same compound, the Activity (HCT-116 [29]) was 25.9% and the Activity (PDX27454 [30]) was “Active”.
Compound `CC[C@@]1(O)C(=O)OCc2c1cc1n(c2=O)Cc2c-1nc1cc3c(cc1c2-c1cc(F)cc(OC)c1)OCO3` has an IC50 (HepG2) of 48.5 nM, an IC50 (HCT-116 [1]) of 66.9 nM and an IC50 (A549) of 15.5 nM. It also gave an IC50 (HeLa) of 124 nM.
In the case of `CC[C@@]1(O)C(=O)OCc2c1cc1n(c2=O)Cc2c-1nc1cc3c(cc1c2-c1ccc(F)cc1)OCO3`, the IC50 (HepG2) is reported as 46.3 nM, the IC50 (HCT-116 [1]) is reported as 32.7 nM and the IC50 (A549) is reported as 19.8 nM. The IC50 (HeLa) was 11.1 nM.
With `CC[C@@]1(O)C(=O)OCc2c1cc1n(c2=O)Cc2c-1nc1cc3c(cc1c2-c1ccc(OC(F)(F)F)cc1)OCO3` the IC50 (HepG2) was 229 nM, the IC50 (HCT-116 [1]) was 196 nM and the IC50 (A549) was 87.3 nM. The IC50 (HeLa) was 398 nM.
